Experiment [1] has as its system PC12 cells. The experiment can be described thus: Cell adhesion inhibition assay: peptide pretreatment, adhesion to rLG3-coated plates. Type of experiment: cell-based, rat. Particulars: rLG3 25 μg/mL, 1 h. As for the experimental part:
Specifically, PC12 cells were pretreated with the Ln2-LG3-P2 peptide in concentrations of 0, 0.2, 0.4, 0.6, 0.8, 1.0, or 1.2 μg/mL for 10 min at room temperature and then cultured on plates coated with rLG3 (25 μg/mL) for 1 h in serum-free medium.
(§1) PC12 cells were pretreated with 500 μg/mL of Ln2-LG3-P1, Ln2-LG3-P2, Ln2-LG3-P3, Ln2-LG3-P4, Ln2-LG3-P5 and SP (scramble peptide) (SEQ ID NO:20) for 10 min at room temperature and then cultured on plates coated with rLG3 (25 μg/mL) in serum-free medium. To observe cell adhesion, PC12 cells were incubated on the coated plates for 1 h and to observe cell spreading, PC12 cells were incubated on the coated plates for 3 h. To observe cell migration, cells were seed into the upper chamber of transwell filters coated with rLG3 (25 μg/mL) and cultured for 24 h. Cell migration was quantified by counting the number of cells that had migrated through the filter.
Specifically, PC12 cells were pretreated with Ln2-LG2-P2 (500 μg/mL) and Ln2-LG3-P2A (500 μg/mL) and then, cell adhesion was observed on plates coated with rLG3 (25 μg/mL).

Experiment [2] deals with PC12 cells. Put plainly: Inhibition of cell spreading on rLG3 by peptide pretreatment. Type of experiment: cell-based, rat. Particulars: PC12 cells pretreated with 500 μg/mL peptide, rLG3 25 μg/mL, 3 h. The protocol: as §1
The subject of experiment [3] is normal human oral keratinocytes (NHOK). Put plainly: Cell adhesion to Ln2-LG3-P2-coated plates, NHOK. Particulars: NHOK at passage 2, 62.5 μg/mL, 1 h. Type of experiment: cell-based. As for the experimental part:
Normal human oral keratinocytes (NHOK) isolated from epidermal tissue of human gingiva were cultured in KGM (by Clonetics, San Diego, Calif.). Cells at passage 2 were used for the following experiments.

Experiment [4] deals with normal human epidermal keratinocytes (NHEK). The experiment can be described thus: Cell adhesion to Ln2-LG3-P2-coated plates, NHEK. Type of experiment: cell-based. Particulars: NHEK at passage 2, 62.5 μg/mL, 1 h. The protocol:
Normal human epidermal keratinocytes (NHEK) isolated from epidermal tissue of normal human epidermal skin were cultured in keratinocyte growth medium (KGM, manufactured by Clonetics, San Diego, Calif.). Cells at passage 2 were used for the following experiments.

Experiment [5] relates to Schwann cells. The experiment can be described thus: Schwann cell spreading on coated plates. Type of experiment: cell-based, human. Particulars: plates coated with 62.5 μg/mL peptide, 3 h. As for the experimental part:
Schwann cells, nerve cells used in the present invention, were obtained from human skin-derived precursors by differentiating the cells toward the Schwann cell lineage for two weeks and identified by immunocytochemical markers specific to Schwann cells, such as S100D and glial fibrillary acidic protein (GFAP) (Biernaskie, J. A. et al., Nat. Protoc., 2006).
Schwann cells were cultured on plates which were coated in the same way for 3 h in serum-free medium and the cell spreading of Schwann cells was observed.

Experiment [6] has as its system Schwann cells. Put plainly: Schwann cell adhesion on coated plates. Type of experiment: cell-based, human. Particulars: plates coated with 62.5 μg/mL peptide, 1 h, serum-free.
In experiment [7] the test system is PC12 cells. The experiment can be described thus: Summary of cell adhesion, spreading, migration and neurite outgrowth promotive effects. Type of experiment: cell-based, rat. Particulars: summary statement of the description. The protocol:
To measure cell adhesion, spreading, migration, and neurite outgrowth promotive activities of PC12 cells using the prepared synthetic peptides that are N- and C-terminal truncated or C-terminal added peptides of the Ln2-LG3-P2 peptide, peptides described in Table 1 were coated onto plates at 62.5 μg/mL and PC12 cells were seeded thereon.

The test system of experiment [8] is PC12 cells. Put plainly: Inhibition of cell adhesion to laminin by rLG3 / rLG3-M1 pretreatment. Type of experiment: cell-based, rat. Particulars: laminin 5 μg/mL. As for the experimental part: In addition, PC12 cells were pretreated with rLG3 (250 or 500 μg/mL) or vehicle (phosphate buffer, pH 3.0) for 30 min and then seeded on plates coated with laminin (5 μg/mL) for 30 min in serum-free medium and cell adhesion was observed.

Experiment [9] has as its system PC12 cells. The experiment can be described thus: Neurite outgrowth assay. Type of experiment: cell-based, rat. Particulars: PC12 cells on coated plates, serum-free, 24 h + 72 h. The protocol:
Laminin, rLG domain protein, and the peptide were coated onto plates and cells were seeded on the plates in serum-free medium and incubated for 24 h. After changing with serum-free medium again, cells were further cultured for 72 h and neurite outgrowth was examined.

Ends that are not written are not given here.

Consider “RNIPPFEGCIWN (RNIPPFEGCIWN-NH2; listed as Homo sapiens) [Ln2-LG3-P2, 12-mer peptide, position 2675 to 2686 in human laminin α2 chain]”, for which the “cell adhesion to rLG3 after peptide pretreatment” value in the experiment with PC12 cells [1] (PC12 cells pretreated with 0 to 1.2 μg/mL peptide for 10 min) is recorded as “decreased in a dose-dependent manner”. The “inhibition of cell adhesion to rLG3 protein” value in the experiment with PC12 cells [1] (PC12 cells pretreated with 500 μg/mL peptide) is recorded as “approximately 40%”. Moreover, the “inhibition of cell spreading to rLG3 protein” value with PC12 cells [2] is “inhibited cell spreading and migration”. Moreover, the cell adhesion activity entry in [3] and in [4] was “strong cell adhesion activity” in each case. Besides, the Schwann cell spreading entry in the experiment on Schwann cells [5] is “substantially higher spreading than BSA or scrambled peptide”. The “reduction of Schwann cell spreading compared to laminin” value with Schwann cells [5] (laminin 5 μg/mL) is recorded as “approximately 50%”. Moreover, the Schwann cell adhesion entry with Schwann cells [6] is recorded as “strong effect”. Also, the “cell adhesion, spreading, migration, and neurite outgrowth promotive effects” value in the experiment with PC12 cells [7] is reported as “occurred the most actively”.

B1: rLG3: recombinant His6-tagged human laminin α2 chain LG3 domain, amino acids 2537 to 2745 (protein, listed as Homo sapiens)
chain: VELSPVPIDVGTEINLSFSTKNESGIILLGSGGTPAPPRRKRRQTGQAYYVILLNRGRLEVHLSTGARTMRKIVIRPEPNLFHDGREHSVHVERTRGIFTVQVDENRRYMQNLTVEQPIEVKKLFVGGAPPEFQPSPLRNIPPFEGCIWNLVINSVPMDFARPVSFKNADIGRCAHQKLREDEDGAAPAEIVIQPEPVPTPAFPTPTPV
modifications: His6 tag
With B1, the “inhibition of cell adhesion to laminin” value in the experiment on PC12 cells [8] (PC12 cells pretreated with 250 μg/mL for 30 min) is given as 23%; in the experiment on PC12 cells [8] (PC12 cells pretreated with 500 μg/mL for 30 min) it was 48%. The neurite outgrowth entry in the experiment with PC12 cells [9] is “supports cell adhesion, spreading, migration, and neurite outgrowth”.
